Source: patent US20260116921A1, “PEPTIDE INHIBITORS OF INTERLEUKIN-23 RECEPTOR AND THEIR USE TO TREAT INFLAMMATORY DISEASES” (priority 2018, published 2026)
Where two headings read alike, the source gives them in different places. Numbered stars: 1 amine (or outer) side, 2 acyl side, 3 side chain; on linkers, the order of the positions; unused ones are H or OH. Bridge positions count the residues as written; N and C are the ends. Square brackets hold non-standard residues; d marks the D form. Peptide text beside a SMILES is read from it. X3 = CCc1ccc2c(C[C@H](N[*:1])C(=O)[*:2])c[nH]c2c1; Trp(7-Me) = Cc1cccc2c(C[C@H](N)C(=O)O)c[nH]c12; Trp(2-Me) = Cc1[nH]c2ccccc2c1C[C@H](N)C(=O)O; Abu(4-yl) = O=C([C@H](CC[*:3])N[*:1])[*:2]; 2Nal = N[C@@H](Cc1ccc2ccccc2c1)C(=O)O; d2Nal = N[C@H](Cc1ccc2ccccc2c1)C(=O)O; AEF = NCCOc1ccc(C[C@H](N)C(=O)O)cc1; Cit = NC(=O)NCCC[C@H](N)C(=O)O; Pen = CC(C)(S)[C@H](N)C(=O)O; αMeK = C[C@](N)(CCCCN)C(=O)O; Aib = CC(C)(N)C(=O)O

How the values were obtained:
in vitro [1] = conditions: cynomolgus monkey, 20% fecal homogenate (supernatant), anaerobic, pH 6.8
IL-23R = target: T1, IL-23R (Homo sapiens, UniProt Q5VWK5); experiment: DB cells IL23R pSTAT3 cell assay (pStat3 HTRF); type: cell-based
T1 sequence (Q5VWK5 24-629): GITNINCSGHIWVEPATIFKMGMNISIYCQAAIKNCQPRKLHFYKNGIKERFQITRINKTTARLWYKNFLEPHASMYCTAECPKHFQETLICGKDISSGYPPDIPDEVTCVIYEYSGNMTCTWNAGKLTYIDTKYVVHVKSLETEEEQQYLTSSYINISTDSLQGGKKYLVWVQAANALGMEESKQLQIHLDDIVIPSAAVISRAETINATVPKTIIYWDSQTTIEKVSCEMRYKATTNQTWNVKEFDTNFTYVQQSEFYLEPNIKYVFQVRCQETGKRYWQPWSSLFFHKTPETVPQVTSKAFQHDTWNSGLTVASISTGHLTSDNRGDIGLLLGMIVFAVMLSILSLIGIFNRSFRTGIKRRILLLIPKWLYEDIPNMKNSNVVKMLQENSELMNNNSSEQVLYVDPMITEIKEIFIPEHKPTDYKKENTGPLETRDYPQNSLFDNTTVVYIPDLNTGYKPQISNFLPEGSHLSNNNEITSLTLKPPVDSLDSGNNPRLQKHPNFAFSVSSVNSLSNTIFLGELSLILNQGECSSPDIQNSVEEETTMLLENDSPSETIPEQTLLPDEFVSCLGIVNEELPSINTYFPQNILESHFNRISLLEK
From the text: Human ELISA indicates the IL23-IL23R competitive binding assay described below, Rat ELISA indicates the rat IL-23R competitive binding ELISA assay described below, and pStat3HTRF indicates the DB cells IL-23R pSTAT3 cell assay described below. The peptides depicted in Table E1 are cyclized via a disulfide bridge formed between two Pen residues in these peptides. The peptides depicted in Table E2 are cyclized via a thioether bond between the indicated amino acid residues. Table E2 provides an illustrative structure depicting thioether cyclization, which is indicated in the table by the term “cyclo,” with the cyclic region bracketed immediately following the term “cyclo.” For certain peptides, the residue Abu is present where indicated, whereas in other embodiments, e.g., those related to the non-cyclized form, the Abu may be referred to as a hSer(Cl) or homoSer residue.
DB Cells IL23R pSTAT3 Cell Assay
IL-23 plays a central role in supporting and maintaining Th17 differentiation in vivo. This process is thought to be mediated primarily through the Signal Transducer and Activator of Transcription 3 (STAT3), with phosphorylation of STAT3 (to yield pSTAT3) leading to upregulation of RORC and pro-inflammatory IL-17. This cell assay examines the levels of pSTAT3 in IL-23R-expressing DB cells when stimulated with IL-23 in the presence of test compounds. Serial dilutions of test peptides and IL-23 (Humanzyme #HZ-1261) at a final concentration of 0.5 nM, were added to each well in a 96 well tissue culture plate (Corning #CLS3894). DB cells (ATCC #CRL-2289), cultured in RPMI-1640 medium (Thermo Scientific #11875093) supplemented with 10% FBS, were added at 5×10E5 cells/well and incubated for 30 minutes at 37° C. in a 5% CO2 humidified incubator. Changes in phospho-STAT3 levels in the cell lysates were detected using the Cisbio HTRF pSTAT3 (Tyr705) Cellular Assay Kit (Cisbio #62AT3PEH), according to manufacturer's Two Plate Assay protocol.

in vitro [2] = conditions: human, 20% fecal homogenate (supernatant), anaerobic, pH 6.8
Method: Fecal homogenate (20%) was prepared by adding 4 mL of growth medium (1 liter contains 2 g peptone water powder, 2 g yeast extract, 0.1 g NaCl, 0.04 g KH2PO4, 0.01 g CaCl2·6H2O, 0.01 g MgSO4·7H2O, 2 mL Tween 80, 0.5 g bile salts, 0.5 g L-cysteine HCl, 2 g NaHCO3, and 10 μL Vitamin K, pH adjusted to 6.8, and sterilized by filtration through a 0.22 μm filter) to every gram of feces (pooled freshly collected human or cynomolgus monkey feces). The suspension was vortexed to break up large clumps, and homogenized using a bead mill homogenizer. Centrifuged the homogenate at 2800×g for 15 min. The supernatant is taken out and used for incubations. DMSO stocks (10 mM) were first prepared for the test compounds. Incubations were performed in an anaerobic chamber conditioned at 37° C. Aliquots of the DMSO solutions were dosed into 1.0 mL aliquots of 20% fecal homogenate, which are pre-warmed to 37° C. The final test compound concentration was 20 μM. At each timepoint (0, 20 min, 1, 3, 6, or 24 hours), 100 μL aliquot of each incubation mixture is taken out and added to separate tubes containing 300 μL of 50% acetonitrile/50% methanol and an internal standard to terminate the reaction. Samples were taken out of the anaerobic chamber and stored at 4° C. until the end of the experiment. After the final timepoint is sampled, the tubes were mixed and then centrifuged at 3,000 rpm for 10 minutes. Aliquots of the supernatant were removed, diluted 1:1 into distilled water containing 0.1% formic acid, and analyzed by LC/MS/MS. Percent remaining at each timepoint was calculated based on the peak area response ratio of test to compound to internal standard. Time 0 was set to 100%, and all later timepoints were calculated relative to time 0. Half-lives were calculated by fitting to a first-order exponential decay equation using Graphpad or Excel.

[3] = Table E3, DB cells, IL-23 0.5 nM, 30 minutes at 37° C., read-out: pStat3 HTRF (IC50)

SMILES | half-life at 20 μM (in vitro [1]) | IC50 (IL-23R) | half-life at 20 μM (in vitro [2]) | IC50 (IL-23R; [3])
CC(=O)N[C@H](CCCNC(=N)N)C(=O)N[C@H]1CCSC[C@@H](C(=O)N[C@@H](Cc2ccc(OCCN)cc2)C(=O)N[C@@H](Cc2ccc3ccccc3c2)C(=O)NC2(C(=O)N[C@@H](CCC(=O)O)C(=O)N[C@@H](CC(N)=O)C(=O)N[C@@H](CC(N)=O)C(N)=O)CCOCC2)NC(=O)[C@H](CCC(N)=O)NC(=O)[C@H](Cc2c[nH]c3c(C)cccc23)NC(=O)[C@H]([C@@H](C)O)NC(=O)[C@H](CCC(N)=O)NC1=O [compound 27] | 180 min | < 1 nM | – | –
CC(=O)NCCCC[C@H](NC(=O)[C@](C)(CC(C)C)NC(=O)[C@H](Cc1ccc2ccccc2c1)NC(=O)[C@H](Cc1ccc(OCCN)cc1)NC(=O)[C@H]1NC(=O)[C@H](CCC(N)=O)NC(=O)[C@H](Cc2c[nH]c3c(C)cccc23)NC(=O)[C@H]([C@@H](C)O)NC(=O)[C@H](CC(N)=O)NC(=O)[C@@H](NC(C)=O)C(C)(C)SSC1(C)C)C(=O)N1CCC[C@@H]1C(=O)NCCC(N)=O [compound 212] | > 1440 min | – | > 1440 min | 10 to 100 nM
CC(=O)NCCCC[C@H](NC(=O)[C@](C)(CC(C)C)NC(=O)[C@H](Cc1ccc2ccccc2c1)NC(=O)[C@H](Cc1ccc(OCCN)cc1)NC(=O)[C@H]1NC(=O)[C@H](CCC(N)=O)NC(=O)[C@H](Cc2c[nH]c3c(C)cccc23)NC(=O)[C@H]([C@@H](C)O)NC(=O)[C@H](CC(N)=O)NC(=O)[C@@H](NC(C)=O)C(C)(C)SSC1(C)C)C(=O)N[C@H](CO)C(=O)NCCC(N)=O [compound 222] | > 1440 min | – | > 1440 min | 1 to 10 nM
COc1cccc2[nH]cc(C[C@@H]3NC(=O)[C@H]([C@@H](C)O)NC(=O)[C@H](CC(N)=O)NC(=O)[C@@H](NC(C)=O)C(C)(C)SSC(C)(C)[C@@H](C(=O)N[C@@H](Cc4ccc(OCCN)cc4)C(=O)N[C@@H](Cc4ccc5ccccc5c4)C(=O)N[C@@](C)(CCCCN)C(=O)N[C@@H](CCCCNC(C)=O)C(=O)N[C@@H](CC(N)=O)C(=O)NCCC(N)=O)NC(=O)[C@H](CCC(N)=O)NC3=O)c12 [compound 229] | 420 min | – | > 1440 min | 10 to 100 nM
CC(=O)NCCCC[C@H](NC(=O)[C@](C)(CCCCN)NC(=O)[C@H](Cc1ccc2ccccc2c1)NC(=O)[C@H](Cc1ccc(OCCN)cc1)NC(=O)[C@H]1NC(=O)[C@H](CCC(N)=O)NC(=O)[C@H](Cc2c[nH]c3cc(C)ccc23)NC(=O)[C@H]([C@@H](C)O)NC(=O)[C@H](CC(N)=O)NC(=O)[C@@H](NC(C)=O)C(C)(C)SSC1(C)C)C(=O)N[C@@H](CC(N)=O)C(=O)NCCC(N)=O [compound 230] | 600 min | – | > 1440 min | 10 to 100 nM
CC(=O)NCCCC[C@H](NC(=O)[C@](C)(CCCCN)NC(=O)[C@H](Cc1ccc2ccccc2c1)NC(=O)[C@H](Cc1ccc(OCCN)cc1)NC(=O)[C@H]1NC(=O)[C@H](CCC(N)=O)NC(=O)[C@H](Cc2c[nH]c3cccc(C)c23)NC(=O)[C@H]([C@@H](C)O)NC(=O)[C@H](CC(N)=O)NC(=O)[C@@H](NC(C)=O)C(C)(C)SSC1(C)C)C(=O)N[C@@H](CC(N)=O)C(=O)NCCC(N)=O [compound 231] | 900 min | – | > 1440 min | 1 to 10 nM
CC(=O)NCCCC[C@@H]1NC(=O)[C@H](Cc2c[nH]c3c(C)cccc23)NC(=O)[C@H]([C@@H](C)O)NC(=O)[C@H](CCC(N)=O)NC(=O)[C@@H](NC(=O)[C@@H](CCCNC(=N)N)NC(C)=O)CCSC[C@@H](C(=O)N[C@@H](Cc2ccc(OCCN)cc2)C(=O)N[C@@H](Cc2ccc3ccccc3c2)C(=O)N[C@@](C)(CCCCN)C(=O)N[C@@H](CCCCNC(C)=O)C(=O)N[C@@H](CC(N)=O)C(N)=O)NC1=O [compound 326] (Ac-[dR][Abu(4-yl)]QT[Trp(7-Me)]K(Ac)C[AEF][2Nal][αMeK]K(Ac)N-NH2; thioether 2-7) | 660 min | – | 660 min | 10 to 100 nM
CC(=O)NCCCC[C@H](NC(=O)[C@](C)(CCCCN)NC(=O)[C@H](Cc1ccc2ccccc2c1)NC(=O)[C@H](Cc1ccc(OCCN)cc1)NC(=O)[C@H]1NC(=O)[C@H](CCCNC(N)=O)NC(=O)[C@H](Cc2c[nH]c3c(C)cccc23)NC(=O)[C@H]([C@@H](C)O)NC(=O)[C@H](CC(N)=O)NC(=O)[C@@H](NC(C)=O)C(C)(C)SSC1(C)C)C(=O)N[C@@H](CC(N)=O)C(=O)NC(C)(C)C(=O)N[C@H](Cc1ccccc1)C(N)=O [compound 346] (Ac-[Pen]NT[Trp(7-Me)][Cit][Pen][AEF][2Nal][αMeK]K(Ac)N[Aib][dF]-NH2; disulfide 1-6) | – | – | – | < 1 nM
CC(=O)NCCCC[C@H](NC(=O)[C@](C)(CCCCN)NC(=O)[C@H](Cc1ccc2ccccc2c1)NC(=O)[C@H](Cc1ccc(OCCN)cc1)NC(=O)[C@H]1NC(=O)[C@H](CCCNC(N)=O)NC(=O)[C@H](Cc2c[nH]c3c(C)cccc23)NC(=O)[C@H]([C@@H](C)O)NC(=O)[C@H](CC(N)=O)NC(=O)[C@@H](NC(C)=O)C(C)(C)SSC1(C)C)C(=O)N[C@@H](CC(N)=O)C(=O)NC(C)(C)C(=O)N[C@H](Cc1ccc(O)cc1)C(N)=O [compound 347] (Ac-[Pen]NT[Trp(7-Me)][Cit][Pen][AEF][2Nal][αMeK]K(Ac)N[Aib][dY]-NH2; disulfide 1-6) | – | – | – | < 1 nM
CC(=O)NCCCC[C@H](NC(=O)[C@](C)(CCCCN)NC(=O)[C@H](Cc1ccc2ccccc2c1)NC(=O)[C@H](Cc1ccc(OCCN)cc1)NC(=O)[C@H]1NC(=O)[C@H](CCCNC(N)=O)NC(=O)[C@H](Cc2c[nH]c3c(C)cccc23)NC(=O)[C@H]([C@@H](C)O)NC(=O)[C@H](CC(N)=O)NC(=O)[C@@H](NC(C)=O)C(C)(C)SSC1(C)C)C(=O)N[C@@H](CC(N)=O)C(=O)NC(C)(C)C(=O)N[C@H](Cc1ccc2ccccc2c1)C(N)=O [compound 348] (Ac-[Pen]NT[Trp(7-Me)][Cit][Pen][AEF][2Nal][αMeK]K(Ac)N[Aib][d2Nal]-NH2; disulfide 1-6) | – | – | – | 1 to 10 nM
CCc1ccc2c(C[C@@H]3NC(=O)[C@H]([C@@H](C)O)NC(=O)[C@H](CC(N)=O)NC(=O)[C@@H](NC(C)=O)C(C)(C)SSC(C)(C)[C@@H](C(=O)N[C@@H](Cc4ccc(OCCN)cc4)C(=O)N[C@@H](Cc4ccc5ccccc5c4)C(=O)N[C@@](C)(CCCCN)C(=O)N[C@@H](CCCCNC(C)=O)C(=O)N[C@@H](CC(N)=O)C(=O)N[C@H](CCCCN)C(N)=O)NC(=O)[C@H](CCCCNC(C)=O)NC3=O)c[nH]c2c1 [compound 349] (Ac-[Pen]NT[X3]K(Ac)[Pen][AEF][2Nal][αMeK]K(Ac)N[dK]-NH2; disulfide 1-6) | – | 1 to 10 nM | – | –
CC(=O)NCCCC[C@@H]1NC(=O)[C@H](Cc2c[nH]c3c(C)cccc23)NC(=O)[C@H]([C@@H](C)O)NC(=O)[C@H](CC(N)=O)NC(=O)[C@@H](NC(C)=O)C(C)(C)SSC(C)(C)[C@@H](C(=O)N[C@@H](Cc2ccc(OCCN)cc2)C(=O)N[C@@H](Cc2ccc3ccccc3c2)C(=O)N[C@@](C)(CCCCN)C(=O)N[C@@H](CCCCNC(C)=O)C(=O)N[C@@H](CO)C(=O)N[C@H](CCCCN)C(N)=O)NC1=O [compound 352] | – | 1 to 10 nM | – | –
CC(=O)NCCCC[C@@H]1NC(=O)[C@H](Cc2c[nH]c3c(C)cccc23)NC(=O)[C@H]([C@@H](C)O)NC(=O)[C@H](CC(N)=O)NC(=O)[C@@H](NC(C)=O)C(C)(C)SSC(C)(C)[C@@H](C(=O)N[C@@H](Cc2ccc(OCCN)cc2)C(=O)N[C@@H](Cc2c(C)[nH]c3ccccc23)C(=O)N[C@@](C)(CCCCN)C(=O)N[C@@H](CCCCNC(C)=O)C(=O)N[C@@H](CC(N)=O)C(=O)N[C@H](CCCCN)C(N)=O)NC1=O [compound 353] (Ac-[Pen]NT[Trp(7-Me)]K(Ac)[Pen][AEF][Trp(2-Me)][αMeK]K(Ac)N[dK]-NH2; disulfide 1-6) | – | – | – | < 1 nM
